Assay results from US11014912B2, “Cyanopyrrolidine derivatives with activity as inhibitors of USP30” (MISSION THERAPEUTICS LIMITED, priority 2016, dated 2021).

Biological target: USP30 (Homo sapiens (Human), UniProt Q70CQ3)
Experiment: USP30 biochemical IC50 assay
Details: fluorescence polarisation, TAMRA labelled peptide linked to ubiquitin substrate; enzyme and compound incubated 30 min at room temp; read after 2 h; read-out: IC50 range
Procedure: USP30 Biochemical IC50 Assay
Dilution plates were prepared at 21 times the final concentration (2100 μM for a final concentration of 100 μM) in 50% DMSO in a 96-well polypropylene V-bottom plate (Greiner #651201). A typical 8-point dilution series would be 100, 30, 10, 3, 1, 0.3, 0.1, 0.03 μM final. Reactions were performed in duplicate in black 384 well plates (small volume, Greiner 784076) in a final reaction volume of 21 μl. Either 1 μl of 50% DMSO or diluted compound was added to the plate. USP30 was diluted in reaction buffer (40 mM Tris, pH 7.5, 0.005% Tween 20, 0.5 mg/ml BSA, 5 mM beta-mercaptoethanol) to the equivalent of 0.05 μl/well and 10 μl of diluted USP30 was added to the compound. Enzyme and compound were incubated for 30 min at room temp. Reactions were initiated by the addition of 50 nM of TAMRA labelled peptide linked to ubiquitin via an iso-peptide bond as fluorescence polarisation substrate. Reactions were read immediately after addition of substrate and following a 2 h incubation at room temperature. Readings were performed on a Pherastar Plus (BMG Labtech). A Excitation 540 nm; A Emission 590 nm.

Sequence of USP30 (Q70CQ3 57-517): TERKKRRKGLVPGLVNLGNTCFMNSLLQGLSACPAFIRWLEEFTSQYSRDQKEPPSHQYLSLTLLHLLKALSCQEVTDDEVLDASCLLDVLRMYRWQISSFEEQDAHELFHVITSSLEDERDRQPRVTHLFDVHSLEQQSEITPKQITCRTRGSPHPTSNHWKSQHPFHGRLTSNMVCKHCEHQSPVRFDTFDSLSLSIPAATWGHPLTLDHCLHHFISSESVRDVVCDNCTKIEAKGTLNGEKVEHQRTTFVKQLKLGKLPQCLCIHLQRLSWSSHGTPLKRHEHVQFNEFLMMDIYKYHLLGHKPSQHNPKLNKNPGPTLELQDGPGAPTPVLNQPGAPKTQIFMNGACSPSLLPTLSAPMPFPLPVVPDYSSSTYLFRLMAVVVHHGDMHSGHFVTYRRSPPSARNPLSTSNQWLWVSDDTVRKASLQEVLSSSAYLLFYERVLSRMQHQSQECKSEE

Row | SMILES | IC50 [nM]
1 | CN(Cc1ccc(N2CCCC2)cc1)C(=O)C=C1CCN(C#N)C1 [Example 28, 2-(1-Cyanopyrrolidin-3-ylidene)-N-methyl-N-(4-(pyrrolidin-1-yl)benzyl)acetamide] | 100 to 1000
2 | N#Cc1ccc(NC(=O)CC2CCN(C#N)C2)nc1 (centres unmarked) [Example 46, N-(5-cyanopyridin-2-yl)-2-(1-cyanopyrrolidin-3-yl)acetamide] | 1000 to 10000
3 | N#CN1CCC(CC(=O)Nc2ccc(Cl)c(Cl)c2)C1 (centres unmarked) [Example 9, 2-(1-Cyanopyrrolidin-3-yl)-N-(3,4-dichlorophenyl)acetamide] | 100 to 1000
4 | N#Cc1cccc(C2CN(C(=O)C[C@@H]3CCN(C#N)C3)C2)c1 [Example 56, (S)-3-(2-(3-(3-cyanophenyl)azetidin-1-yl)-2-oxoethyl)pyrrolidine-1-carbonitrile] | 100 to 1000
5 | N#CN1CCC(CC(=O)N2CC(c3ccc(O)cc3)C2)C1 (centres unmarked) [Example 58, 3-(2-(3-(4-hydroxyphenyl)azetidin-1-yl)-2-oxoethyl)pyrrolidine-1-carbonitrile] | 100 to 1000
6 | N#CN1CCC(CC(=O)Nc2cc(C(F)(F)F)ccn2)C1 (centres unmarked) [Example 45, 2-(1-cyanopyrrolidin-3-yl)-N-(4-(trifluoromethyl)pyridin-2-yl)acetamide] | 100 to 1000
7 | N#CN1CCC(CC(=O)Nc2cc3ccccn3n2)C1 (centres unmarked) [Example 44, 2-(1-cyanopyrrolidin-3-yl)-N-(pyrazolo[1,5-a]pyridin-2-yl)acetamide] | 1000 to 10000
8 | N#CN1CCC(=CC(=O)Nc2cnc3ccccc3c2)C1 [Example 23, 2-(1-Cyanopyrrolidin-3-ylidene)-N-(quinolin-3-yl)acetamide] | 100 to 1000
9 | COc1ccc(C2CN(C(=O)C=C3CCN(C#N)C3)C2)cc1 [Example 17, 3-(2-(3-(4-Methoxyphenyl)azetidin-1-yl)-2-oxoethylidene)pyrrolidine-1-carbonitrile] | 100 to 1000
10 | Cc1noc(C)c1-c1ccc2nc(NC(=O)CC3CCN(C#N)C3)cn2c1 (centres unmarked) [Example 16, 2-(1-Cyanopyrrolidin-3-yl)-N-(6-(3,5-dimethylisoxazol-4-yl)imidazo[1,2-a]pyridin-2-yl)acetamide] | 1000 to 10000
11 | CN(C)C(=O)c1ccc(C2CN(C(=O)C[C@@H]3CCN(C#N)C3)C2)cc1 [Example 60, (S)-4-(1-(2-(1-cyanopyrrolidin-3-yl)acetyl)azetidin-3-yl)-N,N-dimethylbenzamide] | 100 to 1000
12 | N#CN1CCC(CC(=O)N2CC(Oc3ccccc3)C2)C1 (centres unmarked) [Example 12, 3-(2-Oxo-2-(3-phenoxyazetidin-1-yl)ethyl)pyrrolidine-1-carbonitrile] | 100 to 1000
13 | N#CN1CCC(=CC(=O)NCc2cc(C(F)(F)F)ccc2F)C1 [Example 31, 2-(1-Cyanopyrrolidin-3-ylidene)-N-(2-fluoro-5-(trifluoromethyl)benzyl)acetamide] | 1000 to 10000
14 | N#CN1CCC(CC(=O)Nc2ncc(-c3ccccc3)s2)C1 (centres unmarked) [Example 10, 2-(1-Cyanopyrrolidin-3-yl)-N-(5-phenylthiazol-2-yl)acetamide] | 100 to 1000
15 | CN(Cc1ccc2ncccc2c1)C(=O)C=C1CCN(C#N)C1 [Example 24, 2-(1-Cyanopyrrolidin-3-ylidene)-N-methyl-N-(quinolin-6-ylmethyl)acetamide] | 100 to 1000

Results, then the compound that gave them:

Row | IC50 [nM] | SMILES
16 | 10 to 100 | N#CN1CC[C@@H](CC(=O)Nc2cc(-c3cccc(Cl)c3)no2)C1 [Example 42, (S)-N-(3-(3-chlorophenyl)isoxazol-5-yl)-2-(1-cyanopyrrolidin-3-yl)acetamide]
17 | 10 to 100 | COc1ccc(C2CN(C(=O)C[C@@H]3CCN(C#N)C3)C2)cc1 [Example 38, (S)-3-(2-(3-(4-Methoxyphenyl)azetidin-1-yl)-2-oxoethyl)pyrrolidine-1-carbonitrile]
18 | 10 to 100 | N#CN1CCC(=CC(=O)Nc2ccc(Oc3ccccc3)cc2)C1 [Example 22, 2-(1-Cyanopyrrolidin-3-ylidene)-N-(4-phenoxyphenyl)acetamide]
19 | 10 to 100 | COc1cccc(C2CN(C(=O)C[C@@H]3CCN(C#N)C3)C2)c1F [Example 68, (S)-3-(2-(3-(2-fluoro-3-methoxyphenyl)azetidin-1-yl)-2-oxoethyl)pyrrolidine-1-carbonitrile]
20 | 1 to 10 | N#Cc1cccc(-c2cc(NC(=O)C[C@H]3CCN(C#N)C3)no2)c1 [Example 55, (R)-N-(5-(3-cyanophenyl)isoxazol-3-yl)-2-(1-cyanopyrrolidin-3-yl)acetamide]
21 | 1 to 10 | N#CN1CC[C@H](CC(=O)Nc2cc(-c3cccc(Cl)c3)no2)C1 [Example 36, (R)—N-(3-(3-Chlorophenyl)isoxazol-5-yl)-2-(1-cyanopyrrolidin-3-yl)acetamide]
22 | 10 to 100 | COc1cccc(-c2cc(NC(=O)C[C@H]3CCN(C#N)C3)on2)c1 [Example 43, (R)-2-(1-cyanopyrrolidin-3-yl)-N-(3-(3-methoxyphenyl)isoxazol-5-yl)acetamide]
23 | 10 to 100 | C[C@@H](C(=O)Nc1cc(-c2cccc(Cl)c2)no1)[C@@H]1CCN(C#N)C1 [Example 53, (R)-N-(3-(3-chlorophenyl)isoxazol-5-yl)-2-((S)-1-cyanopyrrolidin-3-yl)propanamide]
